Reference: patent US12295396B2, “Antagonists of T2R54 and compositions and uses thereof” (Firmenich Incorporated, priority 2018, dated 2025)

Biological target: T1, hT2R54 (Homo sapiens, UniProt P59534)
T1 construct: expressed in transfected cells; it overexpresses a promiscuous G protein
T1 sequence (P59534 1-338): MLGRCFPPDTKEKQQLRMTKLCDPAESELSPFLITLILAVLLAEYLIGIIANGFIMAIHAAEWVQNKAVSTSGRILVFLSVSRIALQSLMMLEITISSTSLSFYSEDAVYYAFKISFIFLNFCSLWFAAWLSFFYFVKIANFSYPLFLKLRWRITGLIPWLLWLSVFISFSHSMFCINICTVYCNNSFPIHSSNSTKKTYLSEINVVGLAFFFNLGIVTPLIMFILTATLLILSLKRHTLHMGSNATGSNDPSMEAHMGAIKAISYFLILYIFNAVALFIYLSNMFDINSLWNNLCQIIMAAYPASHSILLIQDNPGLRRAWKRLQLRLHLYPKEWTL
Assay: Cell-based assay for measuring hT2R54 inhibition (FLIPR calcium, Fluo4AM, acetaminophen as bitter agonist)
Settings: Table 2; cells stably expressing hT2R54 and a promiscuous G protein; read-out: hT2R54 IC50
How it was run: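 Cells stably co-expressing hT2R54 and a promiscuous G protein were loaded with Fluo4AM and given acetaminophen dose series, alone or with fixed concentrations of test compound. On FLIPR, baseline was recorded for 10 s and fluorescence for 3 min after addition. IC50 is the concentration halving the acetaminophen-alone response.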

| IC50 [nM] | Compound |
| --- | --- |
| 20 | CC(=O)c1cc2c(cc1NC(=O)CN1CCN(C(=O)c3ncc[nH]3)CC1)OCO2 [compound 301] |
| 200 | COc1cc2c(cc1NC(=O)CN1CCN(C(=O)c3ccoc3)CC1)OCO2 [compound 386] |
| 80 | CC(=O)c1cc2c(cc1NC(=O)CN1CCN(C(=O)c3ccc(O)cc3)CC1)OCO2 [compound 43] |
| 546 | COCc1nc(C(=O)N2CCN(CC(=O)Nc3cc4c(cc3OC)OCO4)CC2)co1 [compound 361] |
| 567 | COc1cc2c(cc1NC(=O)CN1CCN(C(=O)c3ncoc3C)CC1)OCO2 [compound 362] |
| 40 | CC(=O)c1cc2c(cc1NC(=O)CN1CCN(C(=O)c3cccs3)CC1)OCO2 [compound 35] |
| 53 | COCc1nc(C(=O)N2CCN(CC(=O)Nc3cc4c(cc3C(C)=O)OCO4)CC2)co1 [compound 296] |
| 100 | COCc1ccc(C(=O)N2CCN(CC(=O)Nc3cc4c(cc3OC)OCO4)CC2)o1 [compound 396] |
| 28 | CC(=O)c1cc2c(cc1NC(=O)CN1CCN(C(=O)c3ccc(F)cc3)CC1)OCO2 [compound 45] |
| 130 | CC(=O)c1cc2c(cc1NC(=O)CN1CCN(S(=O)(=O)C(C)C)CC1)OCO2 [compound 5, N-(6-acetylbenzo[d][1,3]dioxol-5-yl)-2-(4-(isopropylsulfonyl)piperazin-1-yl)acetamide] |
| 80 | CC(=O)c1cc2c(cc1NC(=O)CN1CCN(C(=O)c3ccc(C)o3)CC1)OCCO2 [compound 333] |
| 200 | CC(=O)c1cc2c(cc1NC(=O)CN1CCN(C(=O)c3cn(C)nc3C)CC1)OCO2 [compound 74] |
| 8 | CC(=O)c1cc2c(cc1NC(=O)CN1CCN(C(=O)c3cc(C)no3)CC1)OCO2 [compound 293] |
| 740 | COC(=O)c1cc2c(cc1NC(=O)CN1CCN(C(=O)CN3CCOCC3)CC1)OCO2 [compound 352] |
| 9 | CCCCC(=O)N1CCN(CC(=O)Nc2cc3c(cc2C(C)=O)OCO3)CC1 [compound 10] |
| 82 | COCC(=O)N1CCN(CC(=O)Nc2cc3c(cc2C(=O)OC)OCO3)CC1 [compound 311] |
| 300 | COc1cccc(C(=O)N2CCN(CC(=O)Nc3cc4c(cc3OC)OCO4)CC2)c1 [compound 369] |
| 400 | COc1cc2c(cc1NC(=O)CN1CCN(C(=O)c3cc(C)on3)CC1)OCO2 [compound 389] |
| 80 | CC(=O)c1cc2c(cc1NC(=O)CN1CCN(C(=O)c3ncn[nH]3)CC1)OCO2 [compound 304] |
| 27 | COc1ccc(F)cc1C(=O)N1CCN(CC(=O)Nc2cc3c(cc2C(C)=O)OCO3)CC1 [compound 2, N-(6-Acetylbenzo[d][1,3]dioxol-5-yl)-2-(4-(5-fluoro-2-methoxybenzoyl)piperazin-1-yl)acetamide] |
| 80 | CC(=O)c1cc2c(cc1NC(=O)CN1CCN(C(=O)CC(C)(C)C)CC1)OCO2 [compound 14] |

The next lines start with the compound.

| Compound | IC50 [nM] |
| --- | --- |
| CC(=O)c1cc2c(cc1NC(=O)C(C)N1CCN(C(=O)[C@H]3CCCO3)CC1)OCCO2 (some centres unmarked) [compound 412] | 170 |
| COc1cc2c(cc1NC(=O)C(C)N1CCN(C(C)=O)CC1)OCO2 (centres unmarked) [compound 403] | 1400 |
| CC(=O)c1cc2c(cc1NC(=O)C(C)(C)N1CCN(C(=O)C3CCCO3)CC1)OCO2 (centres unmarked) [compound 319] | 1000 |
| COc1ccccc1CC(=O)N1CCN(CC(=O)Nc2cc3c(cc2OC)OCO3)CC1 [compound 99] | 600 |
| COc1cc2c(cc1NC(=O)CN1CCN(C(=O)Cc3ccccc3O)CC1)OCO2 [compound 100] | 430 |
| COc1cc2c(cc1NC(=O)CN1CCN(C(=O)Cc3cccc(F)c3)CC1)OCO2 [compound 377] | 200 |
| COc1cc2c(cc1NC(=O)CN1CCN(C(=O)C3CCCCC3C)CC1)OCO2 (centres unmarked) [compound 405] | 1000 |

Same assay, conditions: Table 3; cells stably expressing hT2R54 and a promiscuous G protein; read-out: hT2R54 IC50

| IC50 [nM] | Compound |
| --- | --- |
| 500 | CC(=O)c1cc2c(cc1NC(=O)CN1CCN(Cc3ccccc3F)CC1)OCO2 [compound 102] |
| 1760 | CC(=O)c1cc2c(cc1NC(=O)CN1CCN(C(C(N)=O)c3ccccc3)CC1)OCO2 (centres unmarked) [compound 108] |

Same assay, conditions: Table 4; cells stably expressing hT2R54 and a promiscuous G protein; read-out: hT2R54 IC50

| IC50 [nM] | Compound |
| --- | --- |
| 100 | COC(=O)C1CCN(CC(=O)Nc2cc3c(cc2C(C)=O)OCO3)CC1 [compound 125] |
| 135 | CCOC(=O)[C@H]1CCCCN1CC(=O)Nc1cc2c(cc1C(C)=O)OCO2 [compound 419] |
| < 10 | CC(=O)c1cc2c(cc1NC(=O)CN1CCC(O)CC1)OCO2 [compound 120] |
| 50 | CC(=O)c1cc2c(cc1NC(=O)CN1CCSCC1)OCO2 [compound 422] |
| 187 | CC(=O)c1cc2c(cc1NC(=O)CN1CCC(=O)CC1)OCO2 [compound 421] |

Continued, compound first:

| Compound | IC50 [nM] |
| --- | --- |
| CCOC(=O)C1COCCN1CC(=O)Nc1cc2c(cc1OC)OCO2 (centres unmarked) [compound 445] | 526 |
| COc1cc2c(cc1NC(=O)CN1CCOCC1)CCC2 [compound 449] | 804 |
| COC(=O)c1cc2c(cc1NC(=O)CN1CCOCC1)OCCO2 [compound 438] | 198 |
| CC(=O)c1cc2c(cc1NC(=O)CNC1CCN(C(=O)OC(C)(C)C)CC1)OCO2 [compound 139] | 176 |
| CCOC(=O)[C@@H]1CCCC[C@H]1N(C)CC(=O)Nc1cc2c(cc1C(C)=O)OCO2 [compound 137] | 2830 |

Same assay, conditions: Table 5; cells stably expressing hT2R54 and a promiscuous G protein; read-out: hT2R54 IC50

| IC50 [nM] | Compound |
| --- | --- |
| 603 | COc1cc2c(cc1NC(=O)CN1CCCC(C(=O)NCc3ccccc3)C1)OCO2 (centres unmarked) [compound 452] |
| 565 | CC(=O)c1cc2c(cc1NC(=O)CN1CCCC(C(=O)Nc3ccccc3)C1)OCO2 (centres unmarked) [compound 157] |
| 747 | CCNC(=O)C1CCN(CC(=O)Nc2cc3c(cc2C(C)=O)OCO3)CC1 [compound 162] |
| 2090 | CC(=O)c1cc2c(cc1NC(=O)CN1CCC(C(=O)Nc3ccccc3)CC1)OCO2 [compound 164] |

Same assay, conditions: Table 7; cells stably expressing hT2R54 and a promiscuous G protein; read-out: hT2R54 IC50

| IC50 [nM] | Compound |
| --- | --- |
| 30 | CCNC(=O)N1CCCC(N(C)CC(=O)Nc2cc3c(cc2C(C)=O)OCO3)C1 (centres unmarked) [compound 189] |

Same assay, conditions: Table 8; read-out: hT2R54 IC50

| IC50 [nM] | Compound |
| --- | --- |
| 6 | CC(=O)c1cc2c(cc1NC(=O)CC1CCCN(C(=O)c3ccco3)C1)OCO2 (centres unmarked) [compound 194, N-(6-Acetylbenzo[d][1,3]dioxol-5-yl)-2-(1-(furan-2-carbonyl)piperidin-3-yl)acetamide] |
| 58 | CC(=O)c1cc2c(cc1NC(=O)CC1CCN(C(=O)c3ccc(C)o3)CC1)OCO2 [compound 467] |

Continued, compound first:

| Compound | IC50 [nM] |
| --- | --- |
| CC(=O)c1cc2c(cc1NC(=O)CC1CCN(C(=O)Cc3ccccc3F)CC1)OCO2 [compound 248] | 420 |
| CC(=O)c1cc2c(cc1NC(=O)CC1CCCN(C(=O)c3ccc(O)cc3O)C1)OCO2 (centres unmarked) [compound 457] | 140 |
| COc1ccccc1CC(=O)N1CCC(CC(=O)Nc2cc3c(cc2C(C)=O)OCO3)CC1 [compound 255] | 1300 |
| CC(=O)c1cc2c(cc1NC(=O)CC1CCCN(C(=O)c3ccccc3)C1)OCO2 (centres unmarked) [compound 216] | 80 |
| COC(=O)c1cc2c(cc1NC(=O)CC1CCN(C(=O)C3CCCO3)CC1)OCO2 (centres unmarked) [compound 482] | 1400 |
| CCCOC(=O)N1CCC(CC(=O)Nc2cc3c(cc2C(C)=O)OCO3)C1 (centres unmarked) [compound 269] | 103 |
| CCCCS(=O)(=O)N1CCCC(CC(=O)Nc2cc3c(cc2C(C)=O)OCO3)C1 (centres unmarked) [compound 225] | 70 |
| CC(=O)c1cc2c(cc1NC(=O)CC1CCN(C(=O)c3cccnc3)CC1)OCO2 [compound 244] | 51 |
| CC(=O)c1cc2c(cc1NC(=O)CC1CCN(C(=O)C3CCCCC3)C1)OCO2 (centres unmarked) [compound 267] | 2250 |
| CC(=O)c1cc2c(cc1NC(=O)CC1CCN(C(=O)C3CCCCO3)CC1)OCO2 (centres unmarked) [compound 243] | 96 |
| CC(=O)c1cc2c(cc1NC(=O)CC1CCCN(C(=O)CC(C)C)C1)OCO2 (centres unmarked) [compound 193, N-(6-acetylbenzo[d][1,3]dioxol-5-yl)-2-(1-(3-methylbutanoyl)piperidin-3-yl)acetamide] | 17 |
| CCS(=O)(=O)N1CCCC(CC(=O)Nc2cc3c(cc2C(C)=O)OCO3)C1 (centres unmarked) [compound 223] | 40 |
| COCc1ccc(C(=O)N2CCC(CC(=O)Nc3cc4c(cc3C(C)=O)OCCO4)CC2)s1 [compound 488] | 15 |
| CC(=O)c1cc2c(cc1NC(=O)CC1CCN(C(=O)[C@@H]3CCCO3)CC1)OCCO2 [compound 494] | 300 |
| CCCC(=O)N1CCC(CC(=O)Nc2cc3c(cc2C(C)=O)OCO3)CC1 [compound 234] | > 1000 |
| COCC(=O)N1CCC(CC(=O)Nc2cc3c(cc2C(C)=O)OCO3)CC1 [compound 469] | 500 |
| CC(=O)c1cc2c(cc1NC(=O)CC1CCN(C(=O)CC(C)(C)C)C1)OCO2 (centres unmarked) [compound 264] | 381 |

Same assay, conditions: Table 9; read-out: hT2R54 IC50

| IC50 [nM] | Compound |
| --- | --- |
| 1220 | CC(=O)c1cc2c(cc1NC(=O)CCc1ccccc1)OCO2 [compound 278] |
| 740 | CC(=O)c1cc2c(cc1NC(=O)Cc1ccccc1C)OCO2 [compound 277] |
| 561 | CC(=O)c1cc2c(cc1NC(=O)CC1CCOCC1)OCO2 [compound 270, N-(6-Acetylbenzo[d][1,3]dioxol-5-yl)-2-(tetrahydro-2H-pyran-4-yl)acetamide] |

Same assay, conditions: given in example heading; read-out: IC50

| IC50 [nM] | Compound |
| --- | --- |
| 57 | CCOC(=O)C1CN(C(=O)CC(C)C)CCN1CC(=O)Nc1cc2c(cc1C(C)=O)OCO2 (centres unmarked) [compound 192, Ethyl 1-(2-((6-Acetylbenzo[d][1,3]dioxol-5-yl)amino)-2-oxoethyl)-4-(3-methylbutanoyl)piperazine-2-carboxylate] |
